Experimental data: patent publication US10035794B2, “Heterocyclic derivatives and their use in the treatment of neurological disorders” (NOVARTIS AG, priority 2011, dated 2018)
pIC50: −log10 of the molar value.

Key:
Human BACE-2 = Human BACE-2 (Homo sapiens (Human), UniProt Q9Y5Z0); test: Test 2: Inhibition of Human BACE-2; format: biochemical; conditions: mean IC50, recombinant BACE-2, pH 4.5
Excerpt: Test 2: Inhibition of Human BACE-2

[1] = Test 4: Inhibition of Cellular Release of Amyloid Peptide 1-40; format: cell-based, Chinese hamster; conditions: Cricetulus griseus, CHO, 24 h; read-out: Amyloid-β1-40 release IC50
Procedure: Chinese hamster ovary cells are transfected with the human gene for amyloid precursor protein. The cells are plated at a density of 8000 cells/well into 96-well microtiter plates and cultivated for 24 hours in DMEM cell culture medium containing 10% FCS. The test compound is added to the cells at various concentrations, and the cells are cultivated for 24 hours in the presence of the test compound.

Human BACE-1 = Human BACE-1 (Homo sapiens (Human), UniProt P56817); test: Test 1: Inhibition of Human BACE-1; conditions: read-out: BACE-1 IC50; mean IC50, recombinant BACE-1, pH 4.5
Chain of Human BACE-1 (P56817 46-457): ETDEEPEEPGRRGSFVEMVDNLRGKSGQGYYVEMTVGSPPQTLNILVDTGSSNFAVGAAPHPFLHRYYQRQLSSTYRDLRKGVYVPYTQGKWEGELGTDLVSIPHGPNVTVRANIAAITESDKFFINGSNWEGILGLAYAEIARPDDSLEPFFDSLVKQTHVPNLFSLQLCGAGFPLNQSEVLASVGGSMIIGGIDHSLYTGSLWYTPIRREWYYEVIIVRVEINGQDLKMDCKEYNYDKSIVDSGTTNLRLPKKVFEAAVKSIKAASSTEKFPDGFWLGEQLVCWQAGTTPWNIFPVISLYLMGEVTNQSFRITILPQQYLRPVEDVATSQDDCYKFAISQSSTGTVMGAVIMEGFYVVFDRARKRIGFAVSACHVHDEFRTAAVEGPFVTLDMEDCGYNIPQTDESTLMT

Chain of Human BACE-2 (Q9Y5Z0 63-473): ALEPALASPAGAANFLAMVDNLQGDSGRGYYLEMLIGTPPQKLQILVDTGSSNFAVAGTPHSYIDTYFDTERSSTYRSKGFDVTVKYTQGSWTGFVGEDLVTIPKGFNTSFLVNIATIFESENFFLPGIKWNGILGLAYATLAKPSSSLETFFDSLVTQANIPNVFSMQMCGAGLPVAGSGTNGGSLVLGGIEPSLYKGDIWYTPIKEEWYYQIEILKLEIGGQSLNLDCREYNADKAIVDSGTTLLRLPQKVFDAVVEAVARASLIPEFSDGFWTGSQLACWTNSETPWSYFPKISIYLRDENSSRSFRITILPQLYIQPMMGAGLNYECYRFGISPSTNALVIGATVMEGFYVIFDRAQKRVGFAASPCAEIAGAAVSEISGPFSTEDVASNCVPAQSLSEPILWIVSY

| SMILES | pIC50 (Human BACE-2) | pIC50 [1] | pIC50 (Human BACE-1) |
| --- | --- | --- | --- |
| NC1=NC(CF)(c2cccc(NC(=O)c3ccc(Cl)cn3)n2)COC1 (stereo not shown) [Example 3, 5-{6-[(5-Chloro-pyridine-2-carbonyl)-amino]-pyridin-2-yl}-5-fluoromethyl-5,6-dihydro-2H-[1,4]oxazin-3-yl-ammonium trifluoro acetate] |  | 6.85 | 5.59 |
| C[C@@]1(c2cccc(NC(=O)c3ncc(Br)cc3Cl)n2)CO[C@@](C)(C(F)(F)F)C(N)=N1 [Example 22, 5-Bromo-3-chloro-pyridine-2-carboxylic acid [6-((3R,6R)-5-amino-3,6-dimethyl-6-trifluoromethyl-3,6-dihydro-2H-[1,4]oxazin-3-yl)-pyridin-2-yl]-amide] |  | 7.54 |  |

The remaining lines, values ahead:

| pIC50 (Human BACE-2) | pIC50 [1] | pIC50 (Human BACE-1) | SMILES |
| --- | --- | --- | --- |
| 6.00 | 7.40 | 6.57 | Cc1cc(C#N)cnc1C(=O)Nc1cccc(C2(CF)COCC(N)=N2)n1 (stereo not shown) [Example 5, 5-{6-[(5-Cyano-3-methyl-pyridine-2-carbonyl)-amino]-pyridin-2-yl}-5-fluoromethyl-5,6-dihydro-2H-[1,4]oxazin-3-yl-ammonium trifluoro acetate] |
| 5.77 | 7.01 | 5.80 | NC1=NC(CF)(c2cccc(NC(=O)c3ccc(Br)cn3)n2)COC1 (stereo not shown) [Example 4, 5-Bromo-pyridine-2-carboxylic acid [6-(5-amino-3-fluoromethyl-3,6-dihydro-2H-[1,4]oxazin-3-yl)-pyridin-2-yl]-amide] |
|  | 7.20 |  | [2H]c1nc(C(=O)Nc2cccc(C3(CF)COCC(N)=N3)n2)c(C([2H])([2H])[2H])c([2H])c1Cl (stereo not shown) [Example 6, 5-{6-[(4,6-Dideutero-5-chloro-3-trideuteromethyl-pyridine-2-carbonyl)-amino]-pyridin-2-yl}-5-fluoromethyl-5,6-dihydro-2H-[1,4]oxazin-3-yl-ammonium trifluoro acetate] |
